Assay results published in publication PMC4789278, “Pharmacological inhibition of LSD1 for the treatment of MLL-rearranged leukemia” (Journal of Hematology & Oncology, 2016).
Like-named read-outs stand apart in the source and are kept apart here.

Columns and labels:
MV4-11 leukemia cells [1] = test system: MV4-11 leukemia cells; design: method as in PMID 22924785; conditions: read-out: MV4-11 proliferation EC50; cited from earlier work
Molm-13 leukemia cells [2] = test system: Molm-13 leukemia cells; design: method as in PMID 22924785; conditions: read-out: Molm-13 proliferation EC50; cited from earlier work
[3] = test system: H3K79 methylation in MV4-11 cells; design: method as in PMID 23795283; conditions: read-out: IC50 for inhibition of H3K79 methylation; cited from earlier work
recombinant human LSD1 = target: T1, recombinant human LSD1 (Homo sapiens, UniProt O60341); test: LSD1 enzyme inhibition assay (HRP/Amplex red); format: biochemical; conditions: for Selectivity index for LSD1: LSD1 versus MAO-A and -B
T1 construct: Human LSD1 catalytic domain (172-833) was cloned; made in house; host or cells: E. coli BL21-CodonPlus (Agilent)
Method: The LSD1 inhibition assay was performed with the reaction rate (i.e., amount of the product H2O2, Additional file 1: Figure S2) being quantitatively determined by adding horseradish peroxidase (HRP) and a HRP fluorescence substrate Amplex red.
Human LSD1 catalytic domain (172-833) was cloned and inserted into pGEX-KG vector. The correctness of insert was verified by sequencing. BL21-CodonPlus strain (Agilent) was transformed with the pGEX-KG-LSD1 plasmid and cultured at 37 °C in LB medium containing ampicillin (50 μg/mL) and chloramphenicol (34 μg/mL). Upon reaching an optical density of ~0.9 at 600 nm, LSD1 expression was induced by adding 0.2 mM isopropylthiogalactoside at 25 °C for 20 h. Cells were harvested, lysed, and centrifuged at 20,000 rpm for 20 min, and the supernatant was collected and subjected to an affinity column chromatography using the glutathione sepharose resin.
The inhibition assay for the recombinant LSD1 was performed using a published protocol, with the reaction rate (i.e., amount of the product H2O2) being quantitatively determined by adding HRP and a HRP fluorescence substrate Amplex red. […] The total volume of the reaction mixture is 60 μL. After 20 min, 60-μL solution containing HRP (0.01 unit) and Amplex red (80 μM) was added and the fluorescence of each well was determined using a Beckman DTX-880 microplate reader (excitation at 535 and emission at 595 nm). Data were imported into Prism 5.0 (GraphPad), and the IC50 values were calculated by using the sigmoidal dose response curve fitting in the software. The reported IC50s were the mean values of at least three independent experiments.

MV4-11 leukemia cells [4] = test: Antiproliferation assay (XTT), MV4-11; format: cell-based; conditions: Homo sapiens, MV4-11, 360 h; 15-day treatment; MLL-rearranged leukemia; read-out: MV4-11 EC50 (antiproliferative)
Method: Next, these three compounds were tested for their cellular activity against proliferation of MV4-11 leukemia cells bearing MLL-AF4 fusion oncogene.
(§1) These compounds were incubated with a panel of six human leukemia and solid tumor cell lines, including two MLL-rearranged leukemia cells MV4-11 and Molm-13 containing fusion oncogenes MLL-AF4 and -AF9, respectively. […] Also included in the studies are breast cancer MCF-7 and prostate cancer LNCaP cells.
(§2) Proliferation inhibition assay for suspension leukemia cells was performed using an XTT assay kit (Roche) with our previously described method. Proliferation inhibition assay for solid tumor cell lines MCF-7 and LNCaP was performed using our previous described MTT assay. The antiproliferation EC50 values were determined by Prism, and the reported results were the mean values of at least three independent experiments.

Molm-13 leukemia cells [5] = test: Antiproliferation assay (XTT), Molm-13; format: cell-based; conditions: Homo sapiens, MOLM-13, 360 h; 15-day treatment; MLL-rearranged leukemia; read-out: Molm-13 EC50 (antiproliferative)
Method: as §1, §2

NB4 leukemia cells = test: Antiproliferation assay (XTT), NB4; format: cell-based; conditions: Homo sapiens, 360 h; 15-day treatment; non-MLL leukemia cells; read-out: NB4 EC50 (antiproliferative)
Method: as §1, with “We next examined the spectrum of antitumor activity for compounds 1–4. These” for “These”, “cells. […]” for “cells.”
as §2

U937 leukemia cells = test: Antiproliferation assay (XTT), U937; format: cell-based; conditions: Homo sapiens, U-937, 360 h; 15-day treatment; non-MLL leukemia cells; read-out: U937 EC50 (antiproliferative)
Method: as §1, with “We next examined the spectrum of antitumor activity for compounds 1–4. These” for “These”, “cells. […]” for “cells.”
as §2

[6] = test system: breast cancer MCF-7 cells; test: Antiproliferation assay (MTT), MCF-7; format: cell-based; conditions: Homo sapiens, MCF7, 360 h, 15-day treatment, read-out: MCF-7 EC50 (antiproliferative)
Method: as §1, §2

[7] = test system: prostate cancer LNCaP cells; test: Antiproliferation assay (MTT), LNCaP; format: cell-based; conditions: Homo sapiens, 360 h, 15-day treatment, read-out: LNCaP EC50 (antiproliferative)
Method: as §1, with “We next examined the spectrum of antitumor activity for compounds 1–4. These” for “These”, “cells. […]” for “cells.”
as §2

human MAO-A = target: T2, human MAO-A (Homo sapiens, UniProt P21397); test: MAO-A inhibition (MAO-Glo); format: biochemical; conditions: read-out: MAO-A IC50
T2 construct: purchased Sigma
T2 sequence (P21397 1-527): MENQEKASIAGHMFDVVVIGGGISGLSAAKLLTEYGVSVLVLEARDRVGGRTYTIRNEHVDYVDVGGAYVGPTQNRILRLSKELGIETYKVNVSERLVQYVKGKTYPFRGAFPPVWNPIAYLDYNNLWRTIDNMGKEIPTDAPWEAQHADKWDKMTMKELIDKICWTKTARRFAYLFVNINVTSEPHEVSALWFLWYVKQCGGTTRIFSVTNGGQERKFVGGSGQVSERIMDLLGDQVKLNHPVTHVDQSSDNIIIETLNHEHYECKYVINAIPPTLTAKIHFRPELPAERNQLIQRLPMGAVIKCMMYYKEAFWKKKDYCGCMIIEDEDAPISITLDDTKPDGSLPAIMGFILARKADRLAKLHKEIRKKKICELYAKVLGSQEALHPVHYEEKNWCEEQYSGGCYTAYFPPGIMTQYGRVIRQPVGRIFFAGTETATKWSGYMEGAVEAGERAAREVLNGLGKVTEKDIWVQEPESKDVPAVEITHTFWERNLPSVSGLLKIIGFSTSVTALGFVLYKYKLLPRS
Method: The cyclopropylamine LSD1 inhibitors were generally derived from MAO-A/-B inhibitor tranylcypromine, an antidepression drug. Because MAO-A and -B play important roles in the degradation of neurotransmitters (e.g., serotonin and dopamine) in the central nervous system, selective inhibition for LSD1 is highly desirable.
(§3) Recombinant human MAO-A and -B were purchased from Sigma. The inhibitory activity was determined using MAO-Glo assay kit (Promega). In brief, following the manufacturer’s protocol, assays were performed in 384-well white plates (Corning) using MAO-A or -B (100 nM) with a final volume of 20 μL. Reactions were quenched after 60 min by adding reconstituted luciferin detection reagent (20 μL/well); 20 min after addition of the detection reagent, the luminescence of each well was measured using Beckman DTX-880 microplate reader. IC50 calculation was similar to that of LSD1.

human MAO-B = target: T3, human MAO-B (Homo sapiens, UniProt P27338); test: MAO-B inhibition (MAO-Glo); format: biochemical
T3 construct: purchased Sigma
T3 sequence (P27338 1-520): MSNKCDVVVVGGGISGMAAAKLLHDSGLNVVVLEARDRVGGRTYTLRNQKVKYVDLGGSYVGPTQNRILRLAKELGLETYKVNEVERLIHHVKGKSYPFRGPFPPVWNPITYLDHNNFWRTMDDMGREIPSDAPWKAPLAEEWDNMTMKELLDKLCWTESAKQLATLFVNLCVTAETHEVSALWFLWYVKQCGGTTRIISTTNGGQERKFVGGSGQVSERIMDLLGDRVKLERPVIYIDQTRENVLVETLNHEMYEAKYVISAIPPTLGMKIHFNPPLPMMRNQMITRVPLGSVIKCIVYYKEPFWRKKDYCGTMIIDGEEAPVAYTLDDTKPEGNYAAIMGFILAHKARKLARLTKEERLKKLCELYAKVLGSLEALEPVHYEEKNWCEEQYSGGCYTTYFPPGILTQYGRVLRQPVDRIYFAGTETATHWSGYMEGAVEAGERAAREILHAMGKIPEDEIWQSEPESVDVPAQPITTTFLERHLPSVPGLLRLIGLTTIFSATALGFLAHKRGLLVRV
Method: Because MAO-A and -B play important roles in the degradation of neurotransmitters (e.g., serotonin and dopamine) in the central nervous system, selective inhibition for LSD1 is highly desirable.
as §3

[8] = test system: human primary leukemia cells from an AML patient with MLL-ENL fusion oncogene; test: Colony-forming assay; format: cell-based; conditions: 336 h, colonies counted after 14 days, read-out: colony-forming ability EC50
Method: Colony-forming assay using non-serum culture media represents a useful method to assess self-renewal capacity of stem-like cancer cells. The number of cell colonies formed in the assay reflects the proportion of stem-like cells in a given number of cancer cells. […] Human MLL-rearranged AML samples will be obtained from the Children’s Oncology Group (COG) Biopathology Center, in accordance with the IRB-approved protocol H-24170. The colony-forming assay was performed according to our previously published method. After 14 days, the colony number of each culture dish was counted and imported into Prism 5.0 and EC50 values were determined by using the sigmoidal dose response curve fitting in the software.

| IC50 (recombinant human LSD1) | selectivity for LSD1 inhibition over MAO-A and -B (recombinant human LSD1) | Selectivity index for LSD1 (recombinant human LSD1) | EC50 (MV4-11 leukemia cells [4]) | EC50 (Molm-13 leukemia cells [5]) | EC50 (NB4 leukemia cells) | EC50 (U937 leukemia cells) | EC50 [6] | EC50 [7] | IC50 (human MAO-A) | IC50 (human MAO-B) | EC50 [8] | fold less potent than compound 2 against LSD1 (recombinant human LSD1) | Structure (SMILES) | EC50 (MV4-11 leukemia cells [1]) | EC50 (Molm-13 leukemia cells [2]) | IC50 [3] |
| --- | --- | --- | --- | --- | --- | --- | --- | --- | --- | --- | --- | --- | --- | --- | --- | --- |
|  |  |  |  |  |  |  |  |  |  |  |  |  | CC(C)N(CCCNC(=O)Nc1ccc(C(C)(C)C)cc1)CC1OC(n2cnc3c(N)ncnc32)C(O)C1O (centres unmarked) [SYC-522] | ~4 µM | ~7 µM | ~0.2 µM |
| 0.035 µM | > 200 fold | >208 | 0.02 µM | 0.18 µM | > 50 µM | > 50 µM | 13.5 µM | 29.9 µM | 7.3 µM | 16.3 µM | 0.48 µM |  | CN1CCN(C(=O)CNC2CC2c2ccc(Br)cc2)CC1 (centres unmarked) [Compound 3] |  |  |  |
| 5.3 µM |  | <0.58 | 1.4 µM | 12 µM | > 50 µM | 17.5 µM | > 50 µM | > 50 µM | 0.42 µM | 3.1 µM |  | ~ 70 fold | NC1CC1c1ccc(-c2ccc(F)nc2)cc1 (centres unmarked) [Compound 4] |  |  |  |
